Where “and” joins values, the source holds several entries; their conditions need not be identical. Equal entries are not always repeated. Blank lines part the entries; values can stand above or below the molecule they belong to.
Test: solvent given as SMILES
[1] = in O=P(c1ccccc1)(c1ccccc1)c1ccccc1Oc1ccccc1P(=O)(c1ccccc1)c1ccccc1

emission maximum (in CO): 794 nm
Structure (SMILES): CC1(C)C(/C=C/C2=C(Oc3ccc(CCN=C=S)cc3)C(=C/C=C3/N(CCCS(=O)(=O)[O-])c4ccccc4C3(C)C)/CCC2)=[N+](CCCS(=O)(=O)[O-])c2ccccc21

emission maximum (in CC#N): 661 nm
Structure (SMILES): F[B-]1(F)n2c(c(Sc3ccccc3)c3c2-c2ccccc2CC3)C=C2C(Sc3ccccc3)=C3CCc4ccccc4C3=[N+]21

emission maximum (in ClCCl): 514 nm
Structure (SMILES): O=C1OC(=O)C2=C1S[C@]13C2=C[C@H](c2ccccc21)c1ccccc13

emission maximum (in ClC(Cl)Cl): 675 nm
Structure (SMILES): CCCCCCCCC1(CCCCCCCC)c2cc3c(cc2-c2sc(-c4ccc(/C=C5\SC(N6CCCCC6)=NC5=O)c5nsnc45)cc21)C(CCCCCCCC)(CCCCCCCC)c1cc(-c2ccc(/C=C4\SC(N5CCCCC5)=NC4=O)c4nsnc24)sc1-3

Structure (SMILES): c1ccc(-c2cc(-c3ccc(N4c5ccccc5C(c5ccccc5)(c5ccccc5)c5ccccc54)cn3)nc(-c3ccccc3)n2)cc1
emission maximum (in Cc1ccccc1): 480 nm | emission maximum [1]: 486 nm

emission maximum (in ClCCl): 640 nm
Structure (SMILES): CC(C)(C)c1ccc2c(c1)c1cc(C(C)(C)C)ccc1n2-c1ccc(N(c2ccc(-c3ccc(-c4ccc(-c5ccc(-c6ccc(N(c7ccc(-n8c9ccc(C(C)(C)C)cc9c9cc(C(C)(C)C)ccc98)cc7)c7ccc(-n8c9ccc(C(C)(C)C)cc9c9cc(C(C)(C)C)ccc98)cc7)cc6)s5)c5nsnc45)s3)cc2)c2ccc(-n3c4ccc(C(C)(C)C)cc4c4cc(C(C)(C)C)ccc43)cc2)cc1

emission maximum (in C1CCOC1): 371 nm | emission maximum (in C1COCCO1): 369 nm | emission maximum (in CC#N): 380 nm | emission maximum (in CC(C)O): 385 nm | emission maximum (in CCO): 387 nm | emission maximum (in CO): 390 nm | emission maximum (in CS(C)=O): 392 nm | emission maximum (in O): 405 nm | emission maximum (in OCC(F)(F)F): 394 nm
Structure (SMILES): N#Cc1cccc2[nH]ccc12

emission maximum (in CS(C)=O): 418 nm
Structure (SMILES): Clc1ccc(-c2nc3sc4ccccc4c3s2)cc1

Structure (SMILES): c1ccc(-c2nc(-c3ccc(-c4ccc(-n5c6ccccc6c6ccccc65)cc4)cn3)oc2-c2ccccc2)cc1
emission maximum (in C1CCOC1): 411 nm | emission maximum (in C1COCCO1): 406 nm | emission maximum (in CC#N): 415 nm | emission maximum (in CC(C)=O): 413 nm | emission maximum (in CC(C)OC(C)C): 398 nm | emission maximum (in CCCCCC): 392 nm | emission maximum (in CCCCOCCCC): 399 nm | emission maximum (in CCN(CC)CC): 396 nm | emission maximum (in CCOC(C)=O): 408 nm | emission maximum (in CCOCC): 400 nm | emission maximum (in Cc1ccccc1): 404 nm | emission maximum (in c1ccccc1): 405 nm

emission maximum (in CC#N): 414 nm
Structure (SMILES): CCOC(=O)c1c2c3c(ccc(Cl)c3c3cc4ccccc4cc13)N(C)C2=O

emission maximum (in CCO): 579 nm
Structure (SMILES): CN(C)c1ccc2c(-c3ccc(Br)cc3)c3ccc(=[N+](C)C)cc-3oc2c1

emission maximum (in ClCCl): 348 nm
Structure (SMILES): Cn1nc(-c2ccc(C#N)cc2)cc1-c1ccccc1

Structure (SMILES): CCN(CC)c1ccc2c(C(F)(F)F)cc(=O)oc2c1
emission maximum (in C1CCCCC1): 433 nm | emission maximum (in CC#N): 501 nm | emission maximum (in CCO): 509 nm | emission maximum (in CCOC(C)=O): 479 nm | emission maximum (in OCC(O)CO): 524 nm

Structure (SMILES): COc1ccc(-c2csc(/C(C#N)=C\Nc3ccc(C#N)cc3)n2)cc1
emission maximum (in CC#N): 451 nm | emission maximum (in CCO): 444 nm | emission maximum (in CN(C)C=O): 453 nm | emission maximum (in Cc1ccccc1): 441 nm | emission maximum (in ClCCl): 447 nm

emission maximum (in CC#N): 322 nm
Structure (SMILES): O=c1[nH]cc(F)c(=O)[nH]1

emission maximum (in c1ccccc1): 424 nm
Structure (SMILES): Cn1c(=O)c(-c2ccccc2)nc2ccccc21

emission maximum (in CC#N): 348 nm | emission maximum (in CO): 353 nm | emission maximum (in O): 400 nm
Structure (SMILES): CN(C)CCCN1c2ccccc2CCc2ccccc21

emission maximum (in C1COCCO1): 522 nm
Structure (SMILES): COC(=O)c1ccc(/C=C2\C=C(c3ccc(OC)c(OC)c3)OC2=O)cc1

emission maximum (in CO): 566 nm
Structure (SMILES): c1ccc(N(c2ccccc2)c2ccc(-c3cnc(-c4ccncc4)s3)cc2)cc1

emission maximum (in ClCCl): 413 nm
Structure (SMILES): Clc1cc(Cl)c(B2c3ccccc3Nc3ccccc32)c(Cl)c1

emission maximum (in ClC(Cl)Cl): 422 nm
Structure (SMILES): Cc1ccc2c3ccc(C)cc3c3cc4c(C)cc(=O)oc4cc3c2c1

emission maximum (in CC#N): 429 nm | emission maximum (in CCO): 450 nm
Structure (SMILES): Cc1cc(=O)oc2ccc3ccc(O)cc3c12

emission maximum (in C1CCOC1): 420 nm
Structure (SMILES): C1=C(c2ccccc2)C=C(c2ccccc2)/C1=C/C1CCCCC1

Structure (SMILES): CN(C)c1ccc(C#Cc2ccc3ccc4ccc(C#Cc5ccc(N(C)C)cc5)c5ccc2c3c45)cc1
emission maximum (in C1COCCO1): 491.8 nm | emission maximum (in CC(C)=O): 570.9 nm | emission maximum (in CCCCCC): 459 nm | emission maximum (in CCCCCCO): 531.8 nm | emission maximum (in CCO): 543 nm | emission maximum (in CCOC(C)=O): 529.9 nm | emission maximum (in CO): 555.1 nm | emission maximum (in Cc1ccccc1): 482 nm | emission maximum (in ClCCl): 532.7 nm

Structure (SMILES): COC1=[N+]2C(=C(c3ccc(C)cc3)c3ccc(OC)n3[B-]2(F)F)C=C1
emission maximum (in C1CCCCC1): 525 nm | emission maximum (in C1CCOC1): 528 nm | emission maximum (in CC#N): 522 nm | emission maximum (in CCOC(C)=O): 526 nm | emission maximum (in CO): 523 nm | emission maximum (in Cc1ccccc1): 530 nm | emission maximum (in ClC(Cl)Cl): 529 nm

emission maximum (in CC1CCCO1): 490 nm
Structure (SMILES): CCCCCCOc1ccc2ccc3oc(=O)cc4cc(OCCCCCC)c1c2c43

Structure (SMILES): N#Cc1c(N2c3ccccc3C(c3ccccc3)(c3ccccc3)c3ccccc32)cccc1N1c2ccccc2C(c2ccccc2)(c2ccccc2)c2ccccc21
emission maximum (in Cc1ccccc1): 454 nm | emission maximum [1]: 466 nm

emission maximum (in CC#N): 497.02 nm | emission maximum (in CCO): 472.33 nm | emission maximum (in ClCCl): 457 nm
Structure (SMILES): CN(C)c1ccc(C#Cc2ccc(-c3cc(N(C)C)c4ccccc4c3)cc2)cc1

emission maximum (in C1CCCCC1): 387 nm
Structure (SMILES): CCCC1(CCC)c2cc(-c3ccccc3)ccc2-c2ccc(-c3ccc4c(c3)C(CCC)(CCC)c3cc(-c5ccccc5)ccc3-4)cc21

emission maximum (in C1COCCO1): 444 nm
Structure (SMILES): O=C1NC(c2ccccc2)=N/C1=C\c1ccccc1

emission maximum (in O): 338.98 nm
Structure (SMILES): Nc1nc2c(ncn2[C@H]2C[C@H](O)[C@@H](CO)O2)c(=O)[nH]1

emission maximum (in ClCCl): 407 nm
Structure (SMILES): C[Si]1(C)c2cc(C#Cc3ccccc3)ccc2C=Cc2ccc(C#Cc3ccccc3)cc21

emission maximum (in ClCCl): 484 nm
Structure (SMILES): COc1ccc(-c2cnc3cccc(-c4ccccc4)n23)cc1

emission maximum (in ClC(Cl)Cl): 622 nm
Structure (SMILES): CC[N+](CC)=c1ccc2c(-c3ccccc3C(=O)O)c3cc4c(-c5ccccc5C(=O)O)c5ccc(=[N+](CC)CC)cc-5oc4cc3oc-2c1

emission maximum (in CCO): 373 nm | emission maximum (in ClCCl): 396 nm | emission maximum (in O): 463 nm
Structure (SMILES): Oc1ccccc1-c1nc2ccccc2s1

emission maximum (in C1CCCCC1): 463 nm | emission maximum (in C1CCOC1): 540 nm | emission maximum (in CC#N): 598 nm | emission maximum (in CS(C)=O): 600 nm | emission maximum (in ClCCl): 571 nm
Structure (SMILES): C(=C\c1ncnc2ccccc12)/c1ccc(N(c2ccccc2)c2ccccc2)cc1

emission maximum (in C1CCCCC1): 400 nm and 407.66 nm | emission maximum (in C1CCOC1): 397 nm | emission maximum (in CO): 400 nm
Structure (SMILES): c1ccc2cc3ccccc3cc2c1

emission maximum (in C1COCCO1): 479 nm | emission maximum (in CC#N): 482 nm | emission maximum (in CCCCOCCCC): 477 nm | emission maximum (in CCOC(C)=O): 477 nm
Structure (SMILES): COc1nc(Cl)nc(Nc2ccc3c4cccc5cccc(c6cccc2c63)c54)n1

emission maximum (in C1CCCCC1): 374.66 nm | emission maximum (in C1CCOC1): 378.18 nm | emission maximum (in CC#N): 375.98 nm | emission maximum (in CCCCCC): 374.51 nm | emission maximum (in CCO): 375.24 nm | emission maximum (in CN(C)C=O): 380.68 nm | emission maximum (in CO): 375.1 nm | emission maximum (in ClC(Cl)Cl): 379.68 nm | emission maximum (in ClCCl): 378.91 nm
Structure (SMILES): Fc1ccc(-c2cc3c4c(c2)CCc2cc(-c5ccc(F)cc5)cc(c2-4)CC3)cc1

Structure (SMILES): CCCCCCCCC1(CCCCCCCC)c2cc(-c3ccc(C=C4C(=O)c5ccccc5C4=O)cc3)ccc2-c2ccc(-c3ccc(C=C4C(=O)c5ccccc5C4=O)cc3)cc21
emission maximum (in C1CCOC1): 531 nm | emission maximum (in CC(C)=O): 568 nm | emission maximum (in CCCCCC): 462 nm | emission maximum (in CS(C)=O): 596 nm | emission maximum (in Cc1ccccc1): 486 nm | emission maximum (in ClC(Cl)Cl): 530 nm

Structure (SMILES): Cc1ccc(C2=C3C=CC(C#Cc4ccccc4)=[N+]3[B-](F)(F)n3c(Cl)ccc32)cc1
emission maximum (in C1CCCCC1): 575 nm | emission maximum (in C1CCOC1): 573 nm | emission maximum (in C1COCCO1): 575 nm | emission maximum (in CCOC(C)=O): 571 nm | emission maximum (in CO): 569 nm | emission maximum (in Cc1ccccc1): 577 nm | emission maximum (in ClC(Cl)Cl): 577 nm

Structure (SMILES): c1ccc(-c2nc(-c3ccccc3)nc(-c3ccc(-n4c5ccccc5c5cc(-c6ccc7c(c6)c6ccccc6n7-c6ccccc6)ccc54)cc3)n2)cc1
emission maximum [1]: 458.07 nm

emission maximum (in ClCCl): 484 nm
Structure (SMILES): Cc1cc(C)c(B2c3cc(C)ccc3N3c4ccc(C)cc4B(c4c(C)cc(C)cc4C)c4cc(C)cc2c43)c(C)c1

emission maximum (in CC#N): 489 nm | emission maximum (in CCCCCC): 393 nm | emission maximum (in CCO): 505 nm | emission maximum (in CO): 524 nm | emission maximum (in ClCCl): 476 nm
Structure (SMILES): c1ccc(-c2cc(-c3ccc(N(c4ccccc4)c4ccccc4)cc3)cc(-c3ccccc3)n2)cc1

Structure (SMILES): C(=C\c1cccc2ccccc12)/c1ccc(-c2nnc(-c3ccc(-c4cc5ccccc5s4)cc3)o2)cc1
emission maximum (in CC#N): 441 nm | emission maximum (in CC(C)=O): 437 nm | emission maximum (in CCCCCCCC): 426 nm | emission maximum (in CCCCCCCCCCO): 437 nm | emission maximum (in CCCCCCCCO): 436 nm | emission maximum (in CCCCCO): 438 nm | emission maximum (in CCCO): 441 nm | emission maximum (in CN(C)C=O): 447 nm | emission maximum (in CO): 448 nm | emission maximum (in CS(C)=O): 455 nm

emission maximum (in ClC(Cl)Cl): 550 nm
Structure (SMILES): C(#Cc1cccs1)C(C#Cc1cccs1)=Cc1ccc(C=C(C#Cc2cccs2)C#Cc2cccs2)s1

emission maximum (in ClCCl): 486 nm
Structure (SMILES): CCOC(=O)/N=c1/oc2cc(N(CC)CC)ccc2cc1C#N

emission maximum (in C1CCOC1): 375 nm
Structure (SMILES): CC(=O)c1ccc(-c2ccc3c(c2)C(=O)c2cc(-c4ccc(C(C)=O)cc4)ccc2-3)cc1

emission maximum (in C1COCCO1): 549 nm | emission maximum (in CC#N): 661 nm | emission maximum (in ClCCl): 615 nm
Structure (SMILES): CCCCN(CCCC)c1ccc(/C=C/c2ccc3nc(/C=C/c4ccc(N(C)C)cc4)c(-c4ccccc4)nc3c2)cc1

emission maximum (in ClC(Cl)Cl): 660 nm
Structure (SMILES): CCCCCCCCCCCCCCCCCCOc1ccc(C#Cc2cc3nc4c(OCCCCCCCCCCCC)cc5c6cc(OCCCCCCCCCCCC)c(OCCCCCCCCCCCC)cc6c6cc(OCCCCCCCCCCCC)c(OCCCCCCCCCCCC)cc6c5c4nc3cc2C#Cc2ccc(OCCCCCCCCCCCCCCCCCC)cc2)cc1
